Data: US12459938B2, “ORAI channel inhibitors” (Beth Israel Deaconess Medical Center, Inc., priority 2019, dated 2025)

The compounds below were run on Rat mast cells (RBL-2H3 cells) (assay: Calcium influx assay (Fluo-4NW, thapsigargin store depletion, Ca2+ re-addition)). Details: 1 μM compound, control = DMSO, read-out: Fluo-4NW fluorescence (Ca2+ influx), % of control.
Format: cell-based
Protocol: Rat mast cells (RBL-2H3 cells) (ATCC) were seeded in 96-well plate at 4×10^4 cells per well in DMEM-supplemented with 2% FBS and allowed to adhere overnight. Culture medium was then replaced with 50 μl of Ca^2+-free Tyrode buffer to load Ca^2+-probe Fluo-4NW (Molecular Probe, Thermo Fisher, MA, USA) per manufacturer instruction. A testing compound at indicated concentrations was supplied during the probe loading from the beginning. Cells were incubated in the presence or absence of a testing compound for 60 minutes in the Ca^2+-free medium at 37° C. During the last 5 minutes of incubation, cells were treated with 1 μM thapsigargin (Tg, Sigma Aldrich) to deplete [Ca^2+]ER, 20 mM CaCl2 in normal saline solution was supplemented back to the [Ca^2+]ER-depleted cells to have 2 mM as final concentration. Culture medium was removed 1 minute after Ca^2+ reloading, and changes in Fluo-4NW fluorescence (RFU) were recorded with the multi-mode plate reader (FilterMax F5, Molecular Devices/Thermo Fisher Scientific, MA, USA) at an excitation wavelength of 485 nm and an emission wavelength of 535 nm. The inhibitory activity of the tested compound was presented as % of control (DMSO).

Compound | activity at 1 µM [%]
O=C(Nc1c(F)cncc1F)c1cn(CC2CC2)c2ccccc12 [Example 3, 1-(cyclopropylmethyl)-N-(3,5-difluoropyridin-4-yl)-1H-indole-3-carboxamide] | 66
O=C(Nc1c(F)cncc1F)c1cn(CC2CCC2)c2ccccc12 [Example 7, 1-(cyclobutylmethyl)-N-(3,5-difluoropyridin-4-yl)-1H-indole-3-carboxamide] | 85
O=C(Nc1c(F)cccc1F)c1cn(CC2CC2)c2ccccc12 [Example 1, 1-(cyclopropylmethyl)-N-(2,6-difluorophenyl)-1H-indole-3-carboxamide] | 75

Same assay, conditions: 10 μM compound, control = DMSO, read-out: Fluo-4NW fluorescence (Ca2+ influx), % of control

Compound | activity at 10 µM [%]
O=C(Nc1c(F)cncc1F)c1cn(CC2CC2)c2ccccc12 [Example 3, 1-(cyclopropylmethyl)-N-(3,5-difluoropyridin-4-yl)-1H-indole-3-carboxamide] | 37
O=C(Nc1c(F)cncc1F)c1cn(CC2CCC2)c2ccccc12 [Example 7, 1-(cyclobutylmethyl)-N-(3,5-difluoropyridin-4-yl)-1H-indole-3-carboxamide] | 80
O=C(Nc1c(F)cccc1F)c1cn(CC2CC2)c2ccccc12 [Example 1, 1-(cyclopropylmethyl)-N-(2,6-difluorophenyl)-1H-indole-3-carboxamide] | 42

The compounds below were run on NFAT (assay: NFAT activation assay (luciferase reporter, PMA and ionomycin)). Details: Homo sapiens; 10 μM compound; Jurkat cells; 15 nM PMA and 0.5 μM ionomycin; 18 hours; read-out: Activity 10 μM (% inhibition of NFAT luciferase luminescence).
Format: cell-based
Protocol: Jurkat cells (BPS Bioscience catalog No. 60621) were seeded at 40,000 cells per well into white clear-bottom 96-well microplate in 80 μl of growth medium without Geneticin. 10 μl of testing compounds (final 10 μM) were added to each well and preincubated with cells for half an hour. Then 10 μl of PMA and ionomycin mixture were added to each well to make the final concentration of 15 nM PMA and 0.5 μM ionomycin. Cells were incubated at 37° C. and 5% CO2 incubator for 18 hours. After treatment, cells were lysed and the luciferase assay was performed using ONE-Step luciferase assay system by adding 100 μl of One-Step Luciferase reagent (BPS Bioscience catalog No. 60690) per well followed by rocking at room temperature for about 30 minutes. Luminescence was measured using a luminometer (BioTek Synergym™ 2 microplate reader). The percent luminescence in the presence of each compound was calculated according to the following equation: % Luminescence=(L−Lb)/(Lt−Lb), where L=the luminescence intensity in the presence of the compound, Lb=the luminescence intensity in the absence of cells, and Lt=the luminescence intensity in the absence of the compound. The percent inhibition was calculated by: % inhibition=100−(% Luminescence).

Compound | inhibition at 10 µM [%]
Cc1cnccc1NC(=O)c1nn(CC2CCC2)c2c1CCCC2 [Example 40, 1-(cyclobutylmethyl)-N-(3-methylpyridin-4-yl)-4,5,6,7-tetrahydro-1H-indazole-3-carboxamide] | > 75
O=C(Nc1ccncc1F)c1nn(CC2CC2)c2ccccc12 [Example 23, 1-(cyclopropylmethyl)-N-(3-fluoropyridin-4-yl)-1H-indazole-3-carboxamide] | > 75
O=C(Nc1ccncc1F)c1nn(CC2CC2)c2ccc(Br)cc12 [Example 36, 1-(cyclopropylmethyl)-5-bromo-N-(3-fluoropyridin-4-yl)-1H-indazole-3-carboxamide] | 51 to 75
O=C(Nc1ccncc1F)c1nn(CC2CCC2)c2ccccc12 [Example 10, 1-(cyclobutylmethyl)-N-(3-fluoropyridin-4-yl)-1H-indazole-3-carboxamide] | > 75
O=C(Nc1ccncc1F)c1cn(CC2COC2)c2ccccc12 [Example 12, N-(3-fluoropyridin-4-yl)-1-(oxetan-3-ylmethyl)-1H-indole-3-carboxamide] | < 25
Cc1cnccc1NC(=O)c1ccn(CC2CC2)n1 [Example 19, 1-(cyclopropylmethyl)-N-(3-methylpyridin-4-yl)-1H-pyrazole-3-carboxamide] | 51 to 75
Cc1cnccc1NC(=O)c1nn(CC2CC2)c2c1CCCC2 [Example 42, 1-(cyclopropylmethyl)-N-(3-methylpyridin-4-yl)-4,5,6,7-tetrahydro-1H-indazole-3-carboxamide] | > 75
O=C(Nc1c(F)cncc1F)c1cn(CC2CC2)c2ccccc12 [Example 3, 1-(cyclopropylmethyl)-N-(3,5-difluoropyridin-4-yl)-1H-indole-3-carboxamide] | 51 to 75
O=C(Nc1c(F)cccc1F)c1nn(CC2CC2)c2c1CCCC2 [Example 26, 1-(cyclopropylmethyl)-N-(2,6-difluorophenyl)-4,5,6,7-tetrahydro-1H-indazole-3-carboxamide] | 51 to 75
O=C(Nc1ccncc1F)c1cn(CC2CC2)c2ccncc12 [Example 17, 1-(cyclopropylmethyl)-N-(3-fluoropyridin-4-yl)-1H-pyrrolo[3,2-c]pyridine-3-carboxamide] | < 25
O=C(Nc1ccn(CC2CC2)n1)c1ccncc1F [Example 28, N-(1-(cyclopropylmethyl)-1H-pyrazol-3-yl)-3-fluoroisonicotinamide] | < 25
O=C(Nc1ccncc1F)c1nn(CC2CC2)c2c1CCCC2 [Example 25, 1-(cyclopropylmethyl)-N-(3-fluoropyridin-4-yl)-4,5,6,7-tetrahydro-1H-indazole-3-carboxamide] | > 75
Cc1cnccc1C(=O)Nc1ccn(CC2CC2)n1 [Example 30, N-[1-(cyclopropylmethyl)-1H-pyrazol-3-yl]-3-methylpyridine-4-carboxamide] | < 25
O=C(Nc1ccn(CC2CC2)n1)c1c(F)cncc1F [Example 27, N-(1-(cyclopropylmethyl)-1H-pyrazol-3-yl)-3,5-difluoroisonicotinamide] | 26 to 50
O=C(Nc1ccncc1F)c1nn(CC2CC2)c2ncccc12 [Example 31, 1-(cyclopropylmethyl)-N-(3-fluoropyridin-4-yl)-1H-pyrazolo[3,4-b]pyridine-3-carboxamide] | 51 to 75
Cc1cnccc1NC(=O)c1nn(CC2CC2)c2ccccc12 [Example 6, 1-(cyclopropylmethyl)-N-(3-methylpyridin-4-yl)-1H-indazole-3-carboxamide] | > 75
Cc1cnccc1NC(=O)c1nn(CC2CC2)c2c1CCC2 [Example 41, 1-(cycloproylmethyl)-N-(3-methylpyridin-4-yl)-1,4,5,6-tetrahydrocyclopenta[c]pyrazole-3-carboxamide] | 51 to 75
O=C(Nc1c(F)cncc1F)c1cn(CC2CCC2)c2ccccc12 [Example 7, 1-(cyclobutylmethyl)-N-(3,5-difluoropyridin-4-yl)-1H-indole-3-carboxamide] | 51 to 75

Compound | inhibition at 10 µM [%]
O=C(Nc1ccncc1F)c1nn(CC2CCC2)c2c1CCCC2 [Example 33, 1-(cyclobutylmethyl)-N-(3-fluoropyridin-4-yl)-4,5,6,7-tetrahydro-1H-indazole-3-carboxamide] | > 75
CN(C(=O)c1cn(CC2CC2)c2ccccc12)c1ccncc1F [Example 14, 1-(cyclopropylmethyl)-N-(3-fluoropyridin-4-yl)-N-methyl-1H-indole-3-carboxamide] | < 25
O=C(Nc1ccncc1F)c1ccn(CC2CC2)n1 [Example 20, 1-(cyclopropylmethyl)-N-(3-fluoropyridin-4-yl)-1H-pyrazole-3-carboxamide] | 51 to 75
O=C(Nc1ccncc1F)c1cn(CC2CC2)c2cnccc12 [Example 16, 1-(cycloproylmethyl)-N-(3-fluoropyridin-4-yl)-1H-pyrrolo[2,3-c]pyridine-3-carboxamide] | < 25
O=C(Nc1ccncc1F)c1nn(CC2CC2)c2cc(F)ccc12 [Example 38, 1-(cyclopropylmethyl)-6-fluoro-N-(3-fluoropyridin-4-yl)-1H-indazole-3-carboxamide] | > 75
Fc1cnccc1NCc1cn(CC2CC2)c2ccccc12 [Example 15, N-((1-(cyclopropylmethyl)-1H-indol-3-yl)methyl)-3-fluoropyridin-4-amine] | 26 to 50
O=C(Nc1ccncc1F)c1nn(CC2CC2)c2cc(Cl)ccc12 [Example 35, 6-chloro-1-(cyclopropylmethyl)-N-(3-fluoropyridin-4-yl)-1H-indazole-3-carboxamide] | 51 to 75
O=C(Nc1c(F)cccc1F)c1ccn(CC2CC2)n1 [Example 21, 1-(cyclopropylmethyl)-N-(2,6-difluorophenyl)-1H-pyrazole-3-carboxamide] | < 25
O=C(Nc1ccncc1F)c1cn(CC2CC2)c2cccnc12 [Example 18, 1-(cycloproylmethyl)-N-(3-fluoropyridin-4-yl)-1H-pyrrolo[3,2-b]pyridine-3-carboxamide] | 26 to 50
O=C(Nc1c(F)cccc1F)c1cn(CC2CC2)c2ccccc12 [Example 1, 1-(cyclopropylmethyl)-N-(2,6-difluorophenyl)-1H-indole-3-carboxamide] | 51 to 75
O=C(Nc1ccncc1F)c1cn(CC2CC2)c2ncccc12 [Example 5, 1-(cycloproylmethyl)-N-(3-fluoropyridin-4-yl)-1H-pyrrolo[2,3-b]pyridine-3-carboxamide] | 26 to 50
Cc1cnccc1NC(=O)c1nn(CC2CCC2)c2ccccc12 [Example 11, 1-(cyclobutylmethyl)-N-(3-methylpyridin-4-yl)-1H-indazole-3-carboxamide] | > 75
Cc1ccc2c(c1)c(C(=O)Nc1ccncc1F)nn2CC1CC1 [Example 34, 1-(cyclopropylmethyl)-N-(3-fluoropyridin-4-yl)-5-methyl-1H-indazole-3-carboxamide] | > 75
O=C(Nc1ccncc1F)c1nn(CC2CC2)c2ccc(F)cc12 [Example 37, 1-(cyclopropylmethyl)-5-fluoro-N-(3-fluoropyridin-4-yl)-1H-indazole-3-carboxamide] | > 75
Cc1c(C(=O)Nc2ccncc2F)c2ccccc2n1CC1CC1 [Example 43, 1-(cyclopropylmethyl)-N-(3-fluoropyridin-4-yl)-2-methyl-1H-indole-3-carboxamide] | > 75
O=C(Nc1ccncc1F)c1nn(CC2CC2)c2c(F)cccc12 [Example 39, 1-(cyclopropylmethyl)-7-fluoro-N-(3-fluoropyridin-4-yl)-1H-indazole-3-carboxamide] | 51 to 75
O=C(Nc1c(F)cncc1F)c1ccn(CC2CC2)n1 [Example 22, 1-(cyclopropylmethyl)-N-(3,5-difluoropyridin-4-yl)-1H-pyrazole-3-carboxamide] | < 25
O=C(Nc1ccncc1F)c1nn(CC2CC2)c2c1CCC2 [Example 32, 1-(cycloproylmethyl)-N-(3-fluoropyridin-4-yl)-1,4,5,6-tetrahydrocyclopenta[c]pyrazole-3-carboxamide] | > 75
